Columns and labels:
[1] = tested on: green foxtail; assay: Laboratory soil column leaching bioassay (growth inhibition of sensitive test plants at soil depths); assay type: in vivo, green foxtail (setaria); wheat also sown; conditions: laboratory and field experiments
Method: 1. Under laboratory and field conditions, the following bioassay column technique was used to evaluate the leaching of the herbicide using sensitive plants to the given herbicide. Briefly, the experiments have used 100×100×200 mm tin columns filled with soil. The column surface is sprayed with either the commercial formulation of the herbicide or with the organoclay formulated herbicide. The herbicide is added at the same amounts as in the field applications, i.e., 200 g of the active ingredient per 1000 m^2. Then the columns are irrigated with 50 m^3 /[…]. The water is added throughout 5 hours. The columns are left for 24 hr and then sliced along their lengths into two parts (right and left). Two plants, setaria and wheat were sown in each part in two rows and irrigated with water. The height and the weight of the plants 7 days after emergence are used as an indicator of the presence of herbicide at different depths in the soil column.
Alachlor was applied at 2.0 kg/ha followed by irrigation of 500 m^3 /ha. bars indicate standard errors.
Green foxtail growth was used to estimate the presence of matolachlor. Metolachlor formulations were commercial formulation (comm.); metolachlor on clay alone (Mont); metolachlor on clay pre-absorbed with BTMA 0.5 mole/kg clay. The clay based formulations contained 13% metolachlor. […] Bars indicate standard errors.
Green foxtail growth was used to estimate the presence of matolachlor. Metolachlor formulations were commercial formulation (comm.); metolachlor on clay pre-absorbed with PTMA 0.5 mole/kg clay. The clay based formulations contained 13% metolachlor. […] Bars indicate standard errors.

[2] = Adsorption isotherms of herbicide on montmorillonite pre-adsorbed by organic cations; assay type: physicochemical; conditions: for adsorption on montmorillonite pre adsorbed by organic cations: FIGS. 1A and 1B
Method: A suitable concentrated solution of the organic cation is added dropwise to a 0.5 or 1% W/W of clay suspension (e.g. Montmorillonite; Sepiolite; Palygorskite; Pillared clays). After separation of the supernatant, the organoclay complex is dried and ground to less than 50 μm. The herbicide is dissolved in a suitable volatile organic solvent e.g. hexane, dichloro methane, acetone, and mixed with the solid organoclay in weight relations of 5-20 g of herbicide to 95-80 g organoclay. The organic solvent is evaporated under gentle reduced pressure and continuous mixing and the resulting herbicide-organoclay complex is ground to less than 50 μm. The pesticide formulation can be further improved by adding water or another solvent to the dried material; removing the loosely bound pesticide, and drying again.
BTMS 0.8 mole/kg, BTEA 0.8 mole/kg, BTEA 0.5 mole/kg or HDTMA 0.5 mole/kg clay. Bars indicate standard errors.

Row | Structure (SMILES) | inhibition of movement / leaching of the herbicide in the soil profile [1] | adsorption on montmorillonite pre adsorbed by organic cations [2] | adsorption on montmorillonite preadsorbed by PTMA ([2]; PTMA 0.5 mmol/g clay)
1 | CCCC[N+](CCCC)(CCCC)Cc1ccccc1.[Cl-] [BTBA, benzyl tributyl ammonium chloride] | significant inhibition of herbicide leaching has been achieved | – | –
2 | CC[N+](CC)(CC)Cc1ccccc1.[Br-] [BTEA, benzyltriethyl ammonium bromide] | significant inhibition of herbicide leaching has been achieved | – | –
3 | C[N+](C)(C)Cc1ccccc1.[Cl-] [BTMA, benzyltrimethyl ammonium chloride] | significant inhibition of herbicide leaching has been achieved | – | –
4 | CCOCN(C(=O)CCl)c1c(C)cccc1CC [acetochlor] | The same trend was also found | enhanced adsorption | Enhanced adsorption
5 | CCc1cccc(CC)c1N(COC)C(=O)CCl [alachlor] | – | enhanced adsorption | –
6 | CNc1cnn(-c2cccc(C(F)(F)F)c2)c(=O)c1Cl [norflurazon] | The same trend was also found | – | –
